Reference: patent publication US20250101052A1, “COMPOUND FOR EGFR KINASE INHIBITOR, COMPOSITION, AND USE THEREOF” (INNOVATION INSTITUTE FOR ARTIFICIAL INTELLIGENCE IN …, priority 2021, published 2025)

System: Ba/F3-EGFR^L858R/T790M/C797S nude mouse transplantation tumors
Assay: In-vivo efficacy in Ba/F3-EGFR^L858R/T790M/C797S xenograft (CDX)
Design: species or system BALB/c nude mice
Details: 13 days
Procedure: In-vivo efficacy: The compounds of the present invention have excellent in-vivo anti-tumor efficacy and are dose-dependent
In-vivo efficacy experiments were conducted on BALB/c nude mice subcutaneously implanted with Ba/F3-EGFR^L858R/T790M/C797S derived xenograft (CDX). BALB/c nude mice, female, 6-8 weeks old, weighing approximately 18-22 grams, were raised in an SPF-level environment with separate ventilation for each cage (5 mice per cage). All cages, beddings, and water were disinfected before use. All the animals were free to access standard certified commercial laboratory diets. A total of 48 mice were purchased from Beijing Vital River for research. Each mouse was subcutaneously implanted with […] in the right axilla for tumor growth. The experiment began when the average tumor volume reached about 70 cubic millimeters. The experimental compounds were for oral administration daily, with compound 24 (45 mg/kg, 75 mg/kg respectively) and compound 51 (100 mg/kg) administered continuously for 13 days.

SMILES | TGI % (45 mg/kg/day oral) [%] | TGI % (75 mg/kg/day oral) [%] | TGI % (100 mg/kg/day oral) [%]
CCc1cc(Nc2ncc(Cl)c(Nc3ccc(C)c(C)c3P(C)(C)=O)n2)c(OC)cc1N1CC2(CCN(C)CC2)C1 [Compound 24, (6-((5-Chloro-2-((5-ethyl-2-methoxy-4-(7-methyl-2,7-diazaspiro[3.5]non-2-yl)phenyl)amino)pyrimidin-4-yl)amino)-2,3-dimethylphenyl)dimethylphosphine oxide] | 84.74 | 99.06 | 
CCc1cc(Nc2ncc(Cl)c(Nc3ccc(C)c(C)c3P(C)(C)=O)n2)c(OC)cc1N1CCC(N2C[C@H]3CC[C@@H](C2)N3C)CC1 [Compound 51, (6-((5-chloro-2-((5-ethyl-2-methoxy-4-(4-((1R,5S)-8-methyl-3,8-diazabicyclo[3.2.1]octan-3-yl)piperidin-1-yl)phenyl)amino)pyrimidin-4-yl)amino)-2,3-dimethylphenyl)dimethylphosphine oxide] |  |  | 83.07
